Where two headings read alike, the source gives them in different places.
Target: T1, PRMT5/MEP50 (Homo sapiens, UniProt O14744)
T1 construct: Expressed full-length human Flag-PRMT5/6His-MeP50 protein complex was purified; made in house; host or cells: Spodoptera frugiperda (SF9) insect cells, baculovirus (pDEST8)
Assay: PRMT5 Biochemical Assay (PRMT5/MEP50 enzyme assay on peptide substrate, 3H-SAM Flashplate)
Conditions: read-out: Biochemical IC50
Description: S-adenosylmethionine (SAM), S-adenosylhomocysteine (SAH), bicine, KCl, Tween20, dimethylsulfoxide (DMSO), bovine skin gelatin (BSG), and Tris(2-carboxyethyl)phosphine hydrochloride solution (TCEP) were purchased from Sigma-Aldrich at the highest level of purity possible. ^3H-SAM was purchase from American Radiolabeled Chemicals with a specific activity of 80 Ci/mmol 384-well streptavidin Flashplates were purchased from PerkinElmer.
Peptide representative of human histone H4 residues 1-15 was synthesized with a C-terminal linker-affinity tag motif and a C-terminal amide cap by 21st Century Biochemicals. […] The sequence was Ac-[…][K-Biot]-amide (SEQ ID NO.:3).
Full-length human MEP50 (NM_024102) clone was amplified from a human testis cDNA library incorporating a 5′ sequence encoding a 6-histidine tag (MHHHHHH) (SEQ ID NO.:5) fused directly to Arg 2 of MEP50. The amplified genes were sublconed into pENTR/D/TEV (Life Technologies) and subsequently transferred by Gateway™ attL×attR recombination to pDEST8 baculvirus expression vector (Life Technologies).
Recombinant baculovirus and Baculovirus-Infected Insect Cells (BIIC) were generated according to Bac-to-Bac kit instructions (Life Technologies) and Wasilko, 2006, respectively. Protein over-expression was accomplished by infecting exponentially growing Spodoptera frugiperda (SF9) cell culture at 1.2×10^6 cell/ml with a 5000 fold dilution of BIIC stock. Infections were carried out at 27° C. for 72 hours, harvested by centrifugation, and stored at −80° C. for purification.
Flag-PRMT5/6His-MeP50 was eluted with 300 mM Imidazole in the same buffer. […] Reference: Wasilko, D. J. and S. E. Lee: “TIPS: titerless infected-cells preservation and scale-up” Bioprocess J., 5 (2006), pp. 29-32.
General Procedure for PRMT5/MEP50 Enzyme Assays on Peptide Substrates.
The assays were all performed in a buffer consisting of 20 mM Bicine (pH=7.6), 1 mM TCEP, 0.005% BSG, and 0.002% Tween20, prepared on the day of use. Compounds in 100% DMSO (1 ul) were spotted into a polypropylene 384-well V-bottom plates (Greiner) using a Platemate Plus outfitted with a 384-channel head (Thermo Scientific). DMSO (1 ul) was added to Columns 11, 12, 23, 24, rows A-H for the maximum signal control and 1 ul of SAH, a known product and inhibitor of PRMT5/MEP50, was added to columns 11, 12, 23, 24, rows I-P for the minimum signal control. A cocktail (40 ul) containing the PRMT5/MEP50 enzyme and the peptide was added by Multidrop Combi (Thermo-Fisher). The compounds were allowed to incubate with PRMT5/MEP50 for 30 min at 25 degrees Celsius, then a cocktail (10 ul) containing ^3H-SAM was added to initiate the reaction (final volume=51 ul). The final concentrations of the components were as follows: PRMT5/MEP50 was 4 nM, ^3H-SAM was 75 nM, peptide was 40 nM, SAH in the minimum signal control wells was 100 uM, and the DMSO concentration was 1%. The assays were stopped by the addition of non-radioactive SAM (10 ul) to a final concentration of 600 uM, which dilutes the ^3H-SAM to a level where its incorporation into the peptide substrate is no longer detectable. 50 ul of the reaction in the 384-well polypropylene plate was then transferred to a 384-well Flashplate and the biotinylated peptides were allowed to bind to the streptavidin surface for at least 1 hour before being washed three times with 0.1% Tween20 in a Biotek ELx405 plate washer. The plates were then read in a PerkinElmer TopCount plate reader to measure the quantity of ^3H-labeled peptide bound to the Flashplate surface, measured as disintegrations per minute (dpm) or alternatively, referred to as counts per minute (cpm).
where dpm=disintegrations per minute, cmpd=signal in assay well, and min and max are the respective minimum and maximum signal controls.
where top and bottom are the normally allowed to float, but may be fixed at 100 or 0 respectively in a 3-parameter fit.

[1] = PRMT5 biochemical assay, Table C-2

T1 sequence (O14744 with tags, fused parts or gaps): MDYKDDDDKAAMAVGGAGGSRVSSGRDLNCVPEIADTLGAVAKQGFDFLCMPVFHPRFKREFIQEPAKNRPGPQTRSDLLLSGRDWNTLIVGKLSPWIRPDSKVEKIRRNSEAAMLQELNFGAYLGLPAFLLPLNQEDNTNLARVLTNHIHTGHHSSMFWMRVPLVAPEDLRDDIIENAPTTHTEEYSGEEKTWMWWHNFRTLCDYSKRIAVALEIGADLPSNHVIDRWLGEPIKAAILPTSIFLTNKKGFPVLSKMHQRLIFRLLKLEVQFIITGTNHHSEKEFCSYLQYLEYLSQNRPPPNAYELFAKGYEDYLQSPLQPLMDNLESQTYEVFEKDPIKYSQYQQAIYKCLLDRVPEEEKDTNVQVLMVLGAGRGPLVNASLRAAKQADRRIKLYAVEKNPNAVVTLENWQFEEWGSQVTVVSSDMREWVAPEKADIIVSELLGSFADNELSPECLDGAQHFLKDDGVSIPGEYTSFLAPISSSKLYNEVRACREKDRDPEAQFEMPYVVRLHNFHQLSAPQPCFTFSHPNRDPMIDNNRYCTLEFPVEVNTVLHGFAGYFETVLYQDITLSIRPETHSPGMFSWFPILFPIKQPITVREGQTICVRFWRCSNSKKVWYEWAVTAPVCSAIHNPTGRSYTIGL
T1 sequence (Q9BQA1 with tags, fused parts or gaps partner limits assumed): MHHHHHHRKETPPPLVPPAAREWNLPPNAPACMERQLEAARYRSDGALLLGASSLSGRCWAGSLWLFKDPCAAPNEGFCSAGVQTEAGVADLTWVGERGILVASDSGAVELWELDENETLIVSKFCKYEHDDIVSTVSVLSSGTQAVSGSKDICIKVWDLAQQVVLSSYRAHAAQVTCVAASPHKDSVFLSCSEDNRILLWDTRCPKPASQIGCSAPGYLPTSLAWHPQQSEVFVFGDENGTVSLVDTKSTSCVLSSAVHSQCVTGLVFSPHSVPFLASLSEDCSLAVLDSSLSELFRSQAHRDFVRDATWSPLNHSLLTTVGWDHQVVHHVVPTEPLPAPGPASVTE

Row | SMILES | IC50 [1] | IC50 (Table D-2)
1 | O=C1CN(c2cccc(F)c2)CCN1CC(O)CN1CCc2ccccc2C1 (stereo not drawn) [Compound C6] | < 0.1 µM | –
2 | O=C1CN(c2ccc(Cl)cc2)CCN1CC(O)CN1CCc2ccccc2C1 (stereo not drawn) [Compound C7] | < 0.1 µM | –
3 | O=C1CN(c2cncc(N3CCOCC3)c2)CCN1CC(O)CN1CCc2ccccc2C1 (stereo not drawn) [Compound C8] | < 0.1 µM | –
4 | O=C1CN(c2ccccc2Cl)CCN1CC(O)CN1CCc2ccccc2C1 (stereo not drawn) [Compound C9] | 0.101 to 1 µM | –
5 | O=C1CN(c2cccc(N3CCOCC3)c2)CCN1CC(O)CN1CCc2ccccc2C1 (stereo not drawn) [Compound C12] | < 0.1 µM | –
6 | Cc1ccc(N2CCN(CC(O)CN3CCc4ccccc4C3)C(=O)C2)cc1 (stereo not drawn) [Compound C15] | 0.101 to 1 µM | –
7 | O=C1CC(c2ccccc2)CCN1C[C@H](O)CN1CCc2ccccc2C1 (stereo partly drawn) [Compound C16] | 1 to 10 µM | –
8 | O=C1CC(c2ccccc2)CCN1C[C@@H](O)CN1CCc2ccccc2C1 (stereo partly drawn) [Compound C17] | 1 to 10 µM | –
9 | O=c1cc(Nc2ccccc2)ccn1C[C@H](O)CN1CCc2ccccc2C1 [Compound C18] | 1 to 10 µM | –
10 | O=c1cc(Nc2ccccc2)ccn1C[C@H](O)CN1CCc2ccccc2C1 [Compound C19] | 0.101 to 1 µM | –
11 | O=C1CN(c2ccc(CO)cc2)CCN1CC(O)CN1CCc2ccccc2C1 (stereo not drawn) [Compound C20] | 0.101 to 1 µM | –
12 | CC(=O)N1CCN(CC(O)CN2CCc3ccccc3C2)C(=O)C1 (stereo not drawn) [Compound C21] | 1 to 10 µM | –
13 | CS(=O)(=O)N1CCN(CC(O)CN2CCc3ccccc3C2)C(=O)C1 (stereo not drawn) [Compound C22] | 1 to 10 µM | –
14 | O=C1CN(C2CCOCC2)CCN1CC(O)CN1CCc2ccccc2C1 (stereo not drawn) [Compound C23] | 1 to 10 µM | –
15 | O=C1CN(Cc2ccccc2)CCN1CC(O)CN1CCc2ccccc2C1 (stereo not drawn) [Compound C24] | 1 to 10 µM | –
16 | O=C1CN(Cc2ccccn2)CCN1CC(O)CN1CCc2ccccc2C1 (stereo not drawn) [Compound C25] | 1 to 10 µM | –
17 | O=C1CN(Cc2cccnc2)CCN1CC(O)CN1CCc2ccccc2C1 (stereo not drawn) [Compound C26] | 1 to 10 µM | –
18 | CN1CCN(CC(O)CN2CCc3ccccc3C2)C(=O)C1 (stereo not drawn) [Compound C27] | > 50 µM | –
19 | O=C1COCCN1CC(O)CN1CCc2ccccc2C1 (stereo not drawn) [Compound C28] | 1 to 10 µM | –
20 | CN(C)c1ccccc1N1CCN(C[C@H](O)CN2CCc3ccccc3C2)C(=O)C1 [Compound C29] | 0.101 to 1 µM | –
21 | CN(C)c1ccc(N2CCN(C[C@H](O)CN3CCc4ccccc4C3)C(=O)C2)cc1 [Compound C30] | 1 to 10 µM | –
22 | O=C1COc2ccccc2N1CC(O)CN1CCc2ccccc2C1 (stereo not drawn) [Compound C31] | 0.101 to 1 µM | –

Row | SMILES | IC50 [1] | IC50 (Table D-2)
23 | O=C(NC1CCOCC1)C1CC(=O)N(CC(O)CN2CCc3ccccc3C2)C1 (stereo not drawn) [Compound C32] | > 10 µM | –
24 | OC(COC1CCCN(c2ccccc2)C1)CN1CCc2ccccc2C1 (stereo not drawn) [Compound D2] | – | 1 to 10 µM
25 | OC(COc1ccc(OCC(O)CN2CCc3ccccc3C2)cc1)CN1CCc2ccccc2C1 (stereo not drawn) [Compound D3] | – | 0.101 to 1 µM
26 | OC(COc1cccc(CNC2CCCCC2)c1)CN1CCc2ccccc2C1 (stereo not drawn) [Compound D4] | – | 0.101 to 1 µM
27 | OC(COc1cccc(CNC2CCOCC2)c1)CN1CCc2ccccc2C1 (stereo not drawn) [Compound D5] | – | 0.101 to 1 µM
28 | OC(COc1cccc(CNc2cc[nH]n2)c1)CN1CCc2ccccc2C1 (stereo not drawn) [Compound D6] | – | 0.101 to 1 µM
29 | OC(COc1ccccc1N1CCNCC1)CN1CCc2ccccc2C1 (stereo not drawn) [Compound D7] | – | 10 to 40 µM
30 | OC(COc1ccccc1C1CCCCC1)CN1CCc2ccccc2C1 (stereo not drawn) [Compound D8] | – | 1 to 10 µM
31 | OC(COc1ccc(Cc2ccccc2)cc1)CN1CCc2ccccc2C1 (stereo not drawn) [Compound D10] | – | 0.101 to 1 µM
32 | OC(COCc1cc(-c2ccc(Cl)cc2)no1)CN1CCc2ccccc2C1 (stereo not drawn) [Compound D11] | – | 0.101 to 1 µM
33 | OC(COc1cccc(CNC2CCNCC2)c1)CN1CCc2ccccc2C1 (stereo not drawn) [Compound D13] | – | 1 to 10 µM
34 | OC(COc1cccc(CN2CCCCC2)c1)CN1CCc2ccccc2C1 (stereo not drawn) [Compound D14] | – | 1 to 10 µM
35 | OC(COc1cccc2ccc(N3CCOCC3)nc12)CN1CCc2ccccc2C1 (stereo not drawn) [Compound D15] | – | 1 to 10 µM
36 | OC(COc1ccccc1-c1ccno1)CN1CCc2ccccc2C1 (stereo not drawn) [Compound D16] | – | 1 to 10 µM
37 | Cc1cc(OCC(O)CN2CCc3ccccc3C2)c(C)cc1CN1CCOCC1 (stereo not drawn) [Compound D17] | – | 0.101 to 1 µM
38 | OC(COc1ccc(OCc2ccccc2)cc1)CN1CCc2ccccc2C1 (stereo not drawn) [Compound D19] | – | 1 to 10 µM
39 | OC(COc1cccc(OCc2ccccc2)c1)CN1CCc2ccccc2C1 (stereo not drawn) [Compound D20] | – | 1 to 10 µM
40 | OC(COC1CCN(Cc2ccccc2)C1)CN1CCc2ccccc2C1 (stereo not drawn) [Compound D35] | – | 1 to 10 µM
41 | OC(CCc1cccc(CNC2CCCC2)c1)CN1CCc2ccccc2C1 (stereo not drawn) [Compound D36] | – | 10 to 40 µM
42 | COc1ccc(Cn2nccc2-c2ccc(OC[C@@H](O)CN3CCc4ccccc4C3)cc2)cc1 [Compound D38] | – | > 40 µM
43 | OC(COc1cccc(-c2cccnc2)c1)CN1CCc2ccccc2C1 (stereo not drawn) [Compound D40] | – | 1 to 10 µM
44 | Cn1cc(-c2cccc(OCC(O)CN3CCc4ccccc4C3)c2)cn1 (stereo not drawn) [Compound D44] | – | 1 to 10 µM

Row | SMILES | IC50 [1] | IC50 (Table D-2)
45 | OC(COCc1ccc(CN2CCOCC2)cc1)CN1CCc2ccccc2C1 (stereo not drawn) [Compound D46] | – | 1 to 10 µM
46 | OC(COc1ccc(-c2ccn[nH]2)cc1)CN1CCc2ccccc2C1 (stereo not drawn) [Compound D48] | – | 1 to 10 µM
47 | CC1c2ccccc2CCN1CC(O)COc1cccc(CNC2CCCC2)c1 (stereo not drawn) [Compound D50] | – | 1 to 10 µM
48 | CC1Cc2ccccc2CN1CC(O)COc1cccc(CNC2CCCC2)c1 (stereo not drawn) [Compound D51] | – | > 40 µM
49 | OC(COc1cccc(C2CCCCC2)c1)CN1CCc2ccccc2C1 (stereo not drawn) [Compound D52] | – | 1 to 10 µM
50 | COc1cccc2c1CCN(CC(O)COc1cccc(CNC3CCCC3)c1)C2 (stereo not drawn) [Compound D54] | – | > 40 µM
51 | OC(COc1cccc(-c2cccc(Oc3ccccc3)c2)c1)CN1CCc2ccccc2C1 (stereo not drawn) [Compound D55] | – | 1 to 10 µM
52 | CC1CN(CC(O)COc2cccc(CNC3CCCC3)c2)Cc2ccccc21 (stereo not drawn) [Compound D56] | – | > 40 µM
53 | OC(COc1cccc(C2=CCCCC2)c1)CN1CCc2ccccc2C1 (stereo not drawn) [Compound D57] | – | 1 to 10 µM
54 | CN(C)S(=O)(=O)c1cccc(-c2cccc(OCC(O)CN3CCc4ccccc4C3)c2)c1 (stereo not drawn) [Compound D61] | – | > 40 µM
55 | COc1ccc(Cl)c(-c2cccc(OCC(O)CN3CCc4ccccc4C3)c2)c1 (stereo not drawn) [Compound D64] | – | 1 to 10 µM
56 | Cn1cnc2ccc(N3CCCC(OCC(O)CN4CCc5ccccc5C4)C3)cc21 (stereo not drawn) [Compound D66] | – | 0.101 to 1 µM
57 | OC(COc1cccc(-c2ccc(Cl)cc2)c1)CN1CCc2ccccc2C1 (stereo not drawn) [Compound D69] | – | 1 to 10 µM
58 | Oc1ccc(-c2cccc(OCC(O)CN3CCc4ccccc4C3)c2)cc1F (stereo not drawn) [Compound D70] | – | 1 to 10 µM
59 | COc1ccccc1-c1cccc(OCC(O)CN2CCc3ccccc3C2)c1 (stereo not drawn) [Compound D71] | – | 1 to 10 µM
60 | OCc1ccc(-c2cccc(OCC(O)CN3CCc4ccccc4C3)c2)cc1 (stereo not drawn) [Compound D73] | – | 1 to 10 µM
61 | OC(COc1cccc(-c2cncc(F)c2)c1)CN1CCc2ccccc2C1 (stereo not drawn) [Compound D76] | – | 1 to 10 µM
62 | OC(COc1cccc(-c2ccc(F)cc2)c1)CN1CCc2ccccc2C1 (stereo not drawn) [Compound D77] | – | 1 to 10 µM
63 | Cc1ccc(-c2cccc(OCC(O)CN3CCc4ccccc4C3)c2)cn1 (stereo not drawn) [Compound D78] | – | 1 to 10 µM
64 | O=C(NC1CCOCC1)c1cccc(NCC(O)CN2CCc3ccccc3C2)c1 (stereo not drawn) [Compound D79] | – | 10 to 40 µM
65 | OC(COc1cccc(-c2cccc(C(F)(F)F)c2)c1)CN1CCc2ccccc2C1 (stereo not drawn) [Compound D87] | – | 1 to 10 µM
66 | OC(COc1cccc(-c2cccc(Cl)c2)c1)CN1CCc2ccccc2C1 (stereo not drawn) [Compound D91] | – | 1 to 10 µM

Source: patent US20150344457A1, “METHODS OF INHIBITING PRMT5” (EPIZYME, INC., priority 2012, published 2015)
